From patent US11827628B2, “Compositions and methods for inhibition of the JAK pathway” (Rigel Pharmaceuticals, Inc., priority 2005, dated 2023)

System: Primary human T-cells
Assay: Primary Human T-Cell Proliferation Assay Stimulated with IL-2 (CellTiter-Glo)
Assay type: cell-based
Conditions: primary human T-cell proliferation stimulated with IL-2; read-out: IC50, Example 42
In short: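 IC50 derived from CellTiter-Glo ATP signal after 72 hours of IL-2-driven proliferation at 37° C. Cells: primary human T-cells from blood, stimulated beforehand 3-4 days on anti-CD3/anti-CD28 with IL-2, then rested from IL-2 before compound exposure in duplicate; IL-2-free wells served as unstimulated control.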

**Q.** With `Cc1cc(COc2ccc(Nc3nc(Nc4cccc(S(=O)(=O)N(Cc5oc(=O)oc5C)Cc5oc(=O)oc5C)c4)ncc3F)cc2)no1` [Compound I-248, N2-{3-[N-N-Di-[(5-Methyl-1,3-dioxolene-2-one-4-yl)methylene]]aminosulfonylphenyl}-5-fluoro-N4-[4-(5-methylisoxazol-3-yl)methyleneoxyphenyl]-2,4-pyrimidinediamine] as the compound, how does the IC50 read?
**A.** The IC50 was 138 nM.

**Q.** With `Cc1cc(COc2ccc(Nc3nc(Nc4cc(C)c(Cl)c(S(N)(=O)=O)c4)ncc3F)cc2)no1` [Compound I-218, N2-(3-Aminosulfonyl-4-chloro-5-methylphenyl)-5-fluoro-N4-[4-(5-methylisoxazol-3-yl)methyleneoxyphenyl]-2,4-pyrimidinediamine] as the compound, how does the IC50 read?
**A.** The IC50 was 116 nM.

**Q.** For `CCN(CC)CCNS(=O)(=O)c1cccc(Nc2ncc(F)c(Nc3ccc(OCc4cc(C)on4)c(C)c3)n2)c1` [Compound I-244, N2-[3-(2-N,N-Diethylaminoethyl)aminosulfonylphenyl)-5-fluoro-N4-[3-methyl-4-(5-methylisoxazol-3-yl)methyleneoxyphenyl]-2,4-pyrimidinediamine], which IC50 is on record?
**A.** The IC50 was 1410 nM.

**Q.** `Cc1cc(Nc2nc(Nc3ccc(C)c(S(N)(=O)=O)c3)ncc2F)ccc1OCC#N` [Compound I-24, N2-(3-Aminosulfonyl-4-methyl)phenyl-N4-(4-cyanomethoxy-3-methyl)phenyl-5-fluoro-2,4-pyrimidinediamine] was tested. Which IC50 did it give?
**A.** The IC50 was 296 nM.

**Q.** Which IC50 does the source give for `Cc1nc(COc2ccc(Nc3nc(Nc4cccc(S(N)(=O)=O)c4)ncc3F)cc2)no1` [Compound I-276, N2-(3-Aminosulfonyl)phenyl-5-fluoro-N4-[4-(5-methyl-1,2,4-oxadiazol-3-yl)methoxy]phenyl-2,4-pyrimidinediamine] here?
**A.** The IC50 was 106 nM.

**Q.** Which IC50 does the source give for `Cc1ccc(Nc2ncc(F)c(Nc3ccc(CC#N)cc3)n2)cc1S(N)(=O)=O` [III-7, N2-(3-Aminosulfonyl-4-methyl)phenyl-N4-(4-cyanomethyl)phenyl-5-fluoro-2,4-pyrimidinediamine] here?
**A.** The IC50 was 195 nM.

**Q.** `Cc1cc(COc2ccc(Nc3nc(Nc4ccc(F)c(S(N)(=O)=O)c4)ncc3F)cc2)no1` [Compound I-233, N2-(3-Aminosulfonyl-4-fluorophenyl)-5-fluoro-N4-[4-(5-methylisoxazol-3-yl)methyleneoxyphenyl]-2,4-pyrimidinediamine] was tested. Which IC50 did it give?
**A.** Its IC50 is 377 nM.

**Q.** Which IC50 does the source give for `Cc1noc(COc2ccc(Nc3nc(Nc4cc(C)c(Cl)c(S(N)(=O)=O)c4)ncc3F)cc2)n1` [Compound I-265, N2-(3-Aminosulfonyl-4-chloro-5-methylphenyl)-5-fluoro-N4-[4-(3-methyl-1,2,4-oxadiazol-5-yl)methyleneoxyphenyl]-2,4-pyrimidinediamine] here?
**A.** The IC50 was 39.7 nM.

**Q.** Which IC50 does the source give for `NS(=O)(=O)c1cccc(Nc2ncc(F)c(Nc3cccc(CNC(=O)C4CC4)c3)n2)c1` [III-39, N2-(3-aminosulfonyl)phenyl-N4-(3-cyclopropylcarbonylaminomethyl)phenyl-5-fluoro-2,4-pyrimidinediamine] here?
**A.** Its IC50 is 130 nM.
